Values after ≈ are worked out from the molar mass of the structure shown. Active and inactive are the calls of the source. The rule behind the calls is not given here.
These compounds were tested on Vaccinia virus (assay: Antiviral activity against Vaccinia virus infected in primary rabbit kidney cells assessed as inhibition of virus-induced cytopathogenicity treated immediately after virus adsorption measured 2 to 3 days after virus infection). Conditions: Orthopoxvirus vaccinia.
Type: functional

Row | SMILES | MIC
1 | Cc1cn([C@@H]2O[C@H](CO)[C@@H](O)[C@@H]2O)c(=O)[nH]c1=O | 4 µg/mL (≈ 15.5 µM)
2 | CCc1cn([C@@H]2O[C@H](CO)[C@@H](O)[C@@H]2O)c(=O)nc1N | > 200 µg/mL
3 | CCc1cn([C@@H]2O[C@H](CO)[C@@H](O)[C@@H]2O)c(=O)[nH]c1=O | > 200 µg/mL
4 | Nc1ccn([C@@H]2O[C@H](CO)[C@@H](O)[C@@H]2O)c(=O)n1 [CYTARABINE] | 0.02 µg/mL (≈ 0.0822 µM)
5 | O=c1ccn([C@@H]2O[C@H](CO)[C@@H](O)[C@@H]2O)c(=O)[nH]1 [ARAURIDINE] | > 200 µg/mL

These compounds were tested on Vaccinia virus (assay: Antiviral activity against Vaccinia virus infected in primary rabbit kidney cells assessed as inhibition of virus-induced cytopathogenicity at 200 ug/ml treated immediately after virus adsorption measured 2 to 3 days after virus infection). Conditions: Orthopoxvirus vaccinia.
Type: functional, organism-based

Row | SMILES | inhibition
6 | CCc1cn([C@H]2O[C@H](CO)[C@@H](O)[C@@H]2O)c(=O)[nH]c1=O | inactive
7 | CCc1cn([C@H]2O[C@H](CO)[C@@H](O)[C@@H]2O)c(=O)nc1N | inactive
